The values below come from article PMC9448818 (Translational Psychiatry, 2022).

Data set [1] in a line: Dose-adjusted serum concentrations of drug and metabolite (LC-MS/MS) by CYP2C19 and CYP2D6 metabolizer group. As to conditions: vs NM. In kind it is in vivo, human. From the text:
The 16-week study protocol consisted of two phases following screening and baseline visits. […] Blood samples were collected on Weeks 2, 10, and 16 to measure medication levels and on Week 4 for pharmacogenetic analyses. The methods used for the quantification of serum levels of drug and metabolite concentrations is described in the Supplementary Methods.
Serum concentrations were adjusted for dosage (i.e., ng/mL/mg). Sampling time (i.e., hours since the last dose) was entered as a covariate in the regression models to account for when the medication was taken.
The CYP2C19 metabolizer group was not included as a fixed effect covariate, as CYP2C19 is not known to be involved in the metabolism of ARI. […]
Collection of blood samples and quantification of serum drug and metabolite concentrations Participants self-reported the time at which the last dosage of the study medication was taken during the collection of the blood samples. […]
major metabolites, (S-DCT) and (DHA), were performed at the CAMH Clinical Laboratory using LC-MS/MS technology. Briefly, a mix of deuterated internal standards (Cerilliant) was added to 100 µL of each serum specimen, calibrator (Cerilliant) and quality control (MassCheck Antidepressants/Neuroleptics, Level 1 and Level 2). Proteins were precipitated with 300 µL of 9:1 Acetonitrile:Methanol (Sigma-Aldrich) followed by 5 min centrifugation at 9000 rpm. 25 µL of each supernatant was diluted with 200 µL of 0.1% Formic acid (Sigma-Aldrich) and then analyzed on the LC-MS/MS platform consisting of ThermoFisher TSQ Quantum Ultra mass spectrometer coupled with ThermoFisher Surveyor LC pump and HTC PAL autosampler fitted with a Kinetex F5 2.6 µm, 100 x 2.1 mm column (Phenomenex). Six minute gradient elution with 0.1% Formic Acid (mobile phase A) and Acetonitrile (mobile phase B) was applied. Collision energies ranged from 14 to […]
calibration curve ranging from 10 to 1000 ng/mL for each analyte.
Vendor nominal means for quality controls were used to assess the assay accuracy for each of the four analytes […]
precision was considered acceptable assay performance.
Data was analyzed with ThemoFisher XCalibur software.

The next data set relates to CYP2D6. Conditions: cited from earlier work.

For `CNCCC[C@@]1(c2ccc(F)cc2)OCc2cc(C#N)ccc21` [S-DCT, S-desmethylcitalopram], the “B, S-DCTadj concentrations in serum, CYP2C19 IM+PM” value in data set [1] (Week 2 (Phase I)) is listed as -0.04; in data set [1] (Week 10, ESC+ARI arm) it was -0.02; in data set [1] (Week 10, ESC-Only arm), -0.12; in data set [1] (Week 16, ESC+ARI arm), -0.12; in data set [1] (Week 16, ESC-Only arm), -0.09. Further, the “B, S-DCTadj concentrations in serum, CYP2C19 RM+UM” value in data set [1] (Week 2 (Phase I)) stood at 0.04; in data set [1] (Week 10, ESC+ARI arm), 0.14; in data set [1] (Week 10, ESC-Only arm), 0.02; in data set [1] (Week 16, ESC+ARI arm), 0.08; in data set [1] (Week 16, ESC-Only arm) it was 0.07. Besides, the “B, S-DCTadj concentrations in serum, CYP2D6 IM+PM” value in data set [1] (Week 2 (Phase I)) is on record as -0.08; in data set [1] (Week 10, ESC+ARI arm), -0.11; in data set [1] (Week 10, ESC-Only arm) it was -0.11; in data set [1] (Week 16, ESC+ARI arm), -0.12; in data set [1] (Week 16, ESC-Only arm), -0.12. Moreover, the “inhibition of CYP2D6 in vitro” value in the data set on CYP2D6 is reported as “weak inhibitors”.
